One series has as its target hERG (Homo sapiens, UniProt Q12809). Put plainly: In vitro ion channel function.
A further series has as its system S. pneumoniae ATCC49619. Put plainly: MIC (CLSI broth microdilution). It is filed as cell-based.
The test system of series [1] is Coagulase-negative Staphylococci. Also on record: method as in ref 2 (supplement). As to conditions: 1923 tested; ref 2 (supplement); cited from earlier work.
Series [2] is described as follows: 28 day oral toxicology study, rat. The class given is in vivo, Han Wistar rat. The settings on record: for NOAEL at 28 days: in vivo. Here is the method:
The following dosing formulation for rat and dog 28 day PO studies was used: a 100 mg/mL stock of ETX0914 in 5% dextrose and 2.5M meglumine adjusted to pH 9 using 5M HCl or 2.5M meglumine. The dosing formulations were diluted as required with phosphate buffered saline and dispensed daily. […] A control group of 10 male and 10 females were given the vehicle only. An additional 3 animals per sex were allocated to each group for toxicokinetics wherein blood samples (1 mL) from the tail vein pre-trial and on Day 27 were collected. […] Animals were terminated by exposure to CO2. The following were assessed: clinical observations, body weight, food consumption, body temperature, hematology, plasma chemistry, toxicokinetics and gross and microscopic pathology.

Values after ≈ are worked out from the molar mass of the structure shown. Read-outs that look alike come from different tables or passages of the source.

Chain of hERG (Q12809 whole entry): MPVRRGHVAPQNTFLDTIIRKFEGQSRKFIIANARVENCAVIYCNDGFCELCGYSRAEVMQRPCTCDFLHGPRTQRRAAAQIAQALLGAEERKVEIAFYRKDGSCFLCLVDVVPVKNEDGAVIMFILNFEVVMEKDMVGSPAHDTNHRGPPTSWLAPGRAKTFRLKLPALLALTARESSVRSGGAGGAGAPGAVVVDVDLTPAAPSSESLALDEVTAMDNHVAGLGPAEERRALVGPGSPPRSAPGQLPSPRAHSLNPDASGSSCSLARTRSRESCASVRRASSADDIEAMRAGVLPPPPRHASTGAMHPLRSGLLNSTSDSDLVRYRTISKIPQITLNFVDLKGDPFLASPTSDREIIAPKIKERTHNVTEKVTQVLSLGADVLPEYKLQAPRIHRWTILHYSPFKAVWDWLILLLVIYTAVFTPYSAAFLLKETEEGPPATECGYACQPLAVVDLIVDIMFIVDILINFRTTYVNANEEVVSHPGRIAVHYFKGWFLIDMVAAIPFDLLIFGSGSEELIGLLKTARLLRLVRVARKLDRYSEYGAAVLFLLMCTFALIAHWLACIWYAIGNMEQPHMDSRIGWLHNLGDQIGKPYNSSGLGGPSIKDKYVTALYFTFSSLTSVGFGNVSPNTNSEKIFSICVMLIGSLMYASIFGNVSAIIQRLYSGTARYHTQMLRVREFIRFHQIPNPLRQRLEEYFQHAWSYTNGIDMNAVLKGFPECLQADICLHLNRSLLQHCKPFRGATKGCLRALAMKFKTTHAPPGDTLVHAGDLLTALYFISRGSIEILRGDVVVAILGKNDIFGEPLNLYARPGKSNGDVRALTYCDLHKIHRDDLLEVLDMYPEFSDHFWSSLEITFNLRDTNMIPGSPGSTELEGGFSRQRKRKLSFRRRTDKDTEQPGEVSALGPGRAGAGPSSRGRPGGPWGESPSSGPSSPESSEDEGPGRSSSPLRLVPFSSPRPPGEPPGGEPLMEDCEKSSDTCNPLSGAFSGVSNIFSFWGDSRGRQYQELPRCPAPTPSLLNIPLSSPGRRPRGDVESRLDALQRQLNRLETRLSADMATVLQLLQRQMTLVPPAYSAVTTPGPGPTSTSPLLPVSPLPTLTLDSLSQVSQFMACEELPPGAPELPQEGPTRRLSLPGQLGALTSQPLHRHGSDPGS

As for `C[C@@H]1CN2c3c(cc4c(N5C(=O)OC[C@@H]5C)noc4c3F)CC3(C(=O)NC(=O)NC3=O)[C@H]2[C@H](C)O1` [ETX0914], on hERG (hERG IC50, K^+ rectifying current/QT interval), inhibition was half-maximal at 316 µM (IC50). For the same compound, the “margin of ion channel IC50 relative to Cmax” value at hERG (ion channels including hERG, Cmax at highest 4000 mg Phase 1 dose) is “greater than 10 fold”. In addition, the “MIC: S. pneumoniae ATCC49619” value against S. pneumoniae ATCC49619 was determined as 0.125 µg/mL (≈ 0.256 µM). In addition, the MIC90 in series [1] was 0.25^2 µg/ml. Besides, in series [1], the “MIC Range” value was 0.015 to 2.0 µg/mL. Further, the “Salient Pathology Findings” value is recorded as “Reduced activity, pilo-erection, irregular respiration Seminal vesicle: secretory depletion, atrophy Epididymis: cellular debris (minimal) Spleen: increased congestion/haematopoiesis Cecum & rectum: mucosal hyperplasia” in series [2] (1 month rat (po), 500 mg/kg/day) and “As above & testes tubular degeneration partially reversible 3 months post dosing” in series [2] (1 month rat (po), 1000 mg/kg/day). In addition, in series [2] (both sexes, Han Wistar, blood, oral, rat, 200 mg/kg, day 27, read-out: AUC24h at NOAEL), the AUC(0-t) is 1070 µg·h/mL. For the same compound, the Cmax (usually the maximum level reached in the sampled fluid or tissue) was 107 µg/mL in series [2] (both sexes, Han Wistar, blood, oral, rat, 200 mg/kg, day 27, read-out: Cmax at NOAEL); 110 ± 30 µg/mL in series [2] (both sexes, Han Wistar, plasma, 1 month rat (po), 200 mg/kg/day, read-out: Cmax (±SD)); 170 ± 30 µg/mL in series [2] (both sexes, Han Wistar, plasma, 1 month rat (po), 500 mg/kg/day, read-out: Cmax (±SD)); 260 ± 55 µg/mL in series [2] (both sexes, Han Wistar, plasma, 1 month rat (po), 1000 mg/kg/day, read-out: Cmax (±SD)). Besides, the NOAEL (commonly the highest tested level that showed no adverse finding) at 28 days in series [2] (both sexes, Han Wistar, oral, rat, 28 days) stood at 200 mg/kg; in series [2] (both sexes, Han Wistar, 1 month rat (po)), 200 mg/kg/day. Also, the AUC (in general, concentration integrated over time) in series [2] (both sexes, Han Wistar, plasma, 1 month rat (po), 200 mg/kg/day) is 1100 ± 130 µg·h/mL; in series [2] (both sexes, Han Wistar, plasma, 1 month rat (po), 500 mg/kg/day), 2460 ± 470 µg·h/mL; in series [2] (both sexes, Han Wistar, plasma, 1 month rat (po), 1000 mg/kg/day) it was 3820 ± 650 µg·h/mL. Further, the “margin of fAUC at rat NOAEL to efficacious fAUC in mouse thigh model” value in series [2] (both, Han Wistar, rat, plasma, oral, 200 mg/kg) is 13 fold. Moreover, the “haematology or platelet count at the NOAEL” value in series [2] (rat) is listed as “no significant changes in haematology or platelet count”. For the same compound, the tolerated dose result in series [2] (rat, oral, 28 days) is listed as “up to 1000 mg/kg/day”.
